# Data published in patent US20070027189A1, “Use of known active ingredients as radical scavengers” (Altana Pharma AG, priority 2003, published 2007).
# Columns and labels:
# [1] = OH-radical-dependent degradation of haeme group (Soret band at 408 nm), Cu/ascorbate Fenton reaction; type: biochemical, Bovine; conditions: for inhibition of heme degradation: aqueous assay; for inhibition of heme degradation compared to control: dissolved in DMF
# Text: A suitable assay is the inhibition of the OH-radical-dependent degradation of the heme system of heme proteins. The […] of the Soret band of the heme group can be conveniently quantified in the 350-450 nm region. An alternative assay used was the depolymerisation of hyaluronic acid by OH-radicals The progressive depolymerisation of this mucopolysaccharide was followed viscosimetrically and should be inhibited accordingly in the presence of the prazoles. Bovine erythrocytes were haemolysed and diluted with water to give an electronic absorption at 408 nm of 1.0. The assay was performed analogous to that of the myeloperoxidase enzymatic activity test where hypochlorite is produced which is known to degrade the heme group of heme proteins. To 574 μl of aqueous haeme solution in a thermostatted cuvette 6 μl of DMF or water and 10 μl of […] aqueous copper sulphate were added for 5 minutes. The reaction was started after the addition of 10 μl 50 μM ascorbic acid and the absorption followed at 37° C. for two minutes in the control experiment. Depending on the solubility the respective inhibitor was added in a volume of 6 μl in DMF or water. The total volume was 600 μl.
# [2] = depolymerisation of hyaluronic acid by OH-radicals, viscosimetric; type: biochemical
# Text: A suitable assay is the inhibition of the OH-radical-dependent degradation of the heme system of heme proteins. The […] of the Soret band of the heme group can be conveniently quantified in the 350-450 nm region. An alternative assay used was the depolymerisation of hyaluronic acid by OH-radicals The progressive depolymerisation of this mucopolysaccharide was followed viscosimetrically and should be inhibited accordingly in the presence of the prazoles. Depolymerisation of hyaluronic acid was measured in terms of viscosity change with time. Potassium hyaluronate was purchased from Sigma-Aldrich Chemie, Steinheim, Germany. All operations were performed at room temperature (22° C.). Relative viscosity was monitored by recording the time (seconds) required for a given volume (0.8 ml) of the reaction mixture to drain by gravity from the barrel of a plastic 1 ml syringe through a needle of appropriate size. The meniscus was timed as it passed between two calibration marks on the syringe barrel. […] The reaction was started with 30 μl of 50 mM ascorbic acid in presence of 10 mM phosphate buffer pH 7.2 and incubated for 5 minutes. […] When the water-soluble sodium salt of pantoprazole was examined only 2.5 μl 10 mM copper sulphate and 5 μl 50 mM ascorbic acid were needed to yield an appropriate depolymerization effect.
# [3] = superoxide radical scavenging system (superoxide dismutase assay using nitro tetrazolium chloride); type: biochemical
# Procedure: In order to examine a possible reactivity of the substituted benzimidazoles with superoxide a standard superoxide dismutase assay using nitro tetrazolium chloride was employed. Scavengeing of hydroxyl radicals was measured by three different established methods.
# [4] = thiobarbituric acid assay (2-desoxy-D-ribose decomposition, Fe(II) Fenton reaction); type: biochemical; conditions: concentration dependent
# Text: In a third completely different method OH-radicals generated during a Fenton reaction decomposed 2-desoxy-D-ribose. This reaction was monitored by measuring the formation of malondialdehyde-like compounds known to yield coloured thiobarbituric acid adducts which were eventually recorded at 532 nm. […] This was attributed to the extraordinary stability of this compound surviving a hydroxyl radical burst A crucial question was the survival of these benzimidazoles during Fenton-type reactions. These stability measurements were conducted employing HPLC analysis allowing the detection of remaining intact primary compounds. The thiobarbituric acid assay was performed according to the method described earlier [10]300 μl 7.5 mM 2-desoxy-D-ribose were added to 1000 μl 10 mM potassium-phosphate buffer, pH 7.4 and incubated for 30 min. at 37° C. in the presence of 100 μl inhibitor compound and 100 μl 10 mM iron(II)ammonium sulphate. The total volume was 1.5 ml. The reaction was stopped by the addition of 1 ml 1% (w/v) thiobarbituric acid dissolved in 50 mM NaOH and 1 ml of 2.8% (w/v) trichloro acetic acid and maintained for 15 min at 95° C. The control reaction mixture contained the same volume of DMFas was present in the inhibitor compound. The dye was measured at 532 nm.
# [5] = stability under conditions of the Fenton reaction, HPLC analysis; type: physicochemical; conditions: 90 min of incubation, n=3
# Text: In a third completely different method OH-radicals generated during a Fenton reaction decomposed 2-desoxy-D-ribose. This reaction was monitored by measuring the formation of malondialdehyde-like compounds known to yield coloured thiobarbituric acid adducts which were eventually recorded at 532 nm. […] This was attributed to the extraordinary stability of this compound surviving a hydroxyl radical burst A crucial question was the survival of these benzimidazoles during Fenton-type reactions. These stability measurements were conducted employing HPLC analysis allowing the detection of remaining intact primary compounds. A 200 μl aliquot of the incubation mixture was analysed by HPLC using the analytical column Nucleosil C 8, 5 μm (125×4.6 mm, Fa. Grom, Herrenberg, Germany) and the precolumn was LiCHROPREP RP-2 (12×4 mm, Fa. Merck, Darmstadt, Germany) in a reverse phase. A gradient of acetonitrile (10-45% (v/v)) and 10 mM phosphate buffer, pH 7.4, at a flow rate of 1 ml min-1 was used as effluent on the analytical column.
# [6] = scavenging of hydroxyl radicals generated during a Fenton reaction (three assays); type: biochemical
# Procedure: Bovine erythrocytes were haemolysed and diluted with water to give an electronic absorption at 408 nm of 1.0. The assay was performed analogous to that of the myeloperoxidase enzymatic activity test where hypochlorite is produced which is known to degrade the heme group of heme proteins. To 574 μl of aqueous haeme solution in a thermostatted cuvette 6 μl of DMF or water and 10 μl of […] aqueous copper sulphate were added for 5 minutes. The reaction was started after the addition of 10 μl 50 μM ascorbic acid and the absorption followed at 37° C. for two minutes in the control experiment. Depending on the solubility the respective inhibitor was added in a volume of 6 μl in DMF or water. The total volume was 600 μl. Depolymerisation of hyaluronic acid was measured in terms of viscosity change with time. Potassium hyaluronate was purchased from Sigma-Aldrich Chemie, Steinheim, Germany. All operations were performed at room temperature (22° C.). Relative viscosity was monitored by recording the time (seconds) required for a given volume (0.8 ml) of the reaction mixture to drain by gravity from the barrel of a plastic 1 ml syringe through a needle of appropriate size. The meniscus was timed as it passed between two calibration marks on the syringe barrel. […] The dye was measured at 532 nm.
# [7] = after oral administration; read-out: maximal concentration (Cmax) in plasma; cited from earlier work
inhibition of heme degradation ([1]; 25 μM),inhibition of heme degradation ([1]; 50 μM),inhibition of heme degradation ([1]; 100 μM),inhibition of heme degradation compared to control ([1]; 50 μM),inhibition of heme degradation compared to control ([1]; 100 μM),"mucopolysaccharide degradation ([2]; 80 μM dissolved in DMF, within 20 min)",decrease of intact compound after OH-radical exposure [5],Structure (SMILES),"inhibition of hyaluronic acid depolymerisation ([2]; 12 μM, fully aqueous assay)","biopolymer protected ([2]; 20 μM, fully aqueous assay)",reactivity in the superoxide radical scavenging system [3],inhibition of hyaluronic acid depolymerisation ([2]; 160 μM dissolved in DMF),inhibitory effect on OH-radical decomposition of desoxyribose [4],scavenging of hydroxyl radicals [6],Cmax [7]
distinct inhibition,34%,74%,,,,,COc1ccnc(C[S+]([O-])c2nc3ccc(OC(F)F)cc3[nH]2)c1OC (centres unmarked) [pantoprazole sodium],46%,90%,,,,,
,,,36%,75%,48%,15%,"COc1ccnc(C[S+]([O-])c2nc3ccc(OC(F)F)cc3[nH]2)c1OC (centres unmarked) [pantoprazole, 5-difluoromethoxy-2-[(3,4-dimethoxy-2-pyridinyl)methylsulphinyl]-1H-benzimidazole]",,,did not display detectable reactivity,nearly complete inhibition,inhibitory effect was clearly seen,pronounced inhibitory reactivity,5 to 10 µM
